What was measured:
CDK2-cyclin A = CDK2-cyclin A (Homo sapiens, UniProt P24941); assay: Kinase assay (radioactive phosphate incorporation), CDK2-cyclin A; type: biochemical; settings: read-out: Kinase Inhibition pIC50 CDK2-cyclin A (converted)
Procedure: (§1) Kinase assays. The compounds of the invention above were investigated for their ability to inhibit the enzymatic activity of various protein kinases (Table 2). This was achieved by measurement of incorporation of radioactive phosphate from ATP into appropriate polypeptide substrates. Recombinant protein kinases and kinase complexes were produced or obtained commercially. Assays were performed using 96-well plates and appropriate assay buffers (typically 25 mM β-glycerophosphate, 20 mM MOPS, 5 mM EGTA, 1 mM DTT, 1 mM […], pH 7.4), into which were added 2-4 μg of active enzyme with appropriate substrates. The reactions were initiated by addition of Mg/ATP mix (15 mM MgCl2+100 μM ATP with 30-50 kBq per well of [γ-^32P]-ATP) and mixtures incubated as required at 30° C. Reactions were stopped on ice, followed by filtration through p81 filterplates or GF/C filterplates (Whatman Polyfiltronics, Kent, UK). After washing 3 times with 75 mM aq orthophosphoric acid, plates were dried, scintillant added and incorporated radioactivity measured in a scintillation counter (TopCount, Packard Instruments, Pangbourne, Berks, UK). Compounds for kinase assay were made up as 10 mM stocks in DMSO and diluted into 10% DMSO in assay buffer.

CDK2-cycline E = CDK2-cycline E (Homo sapiens, UniProt P24941); assay: Kinase assay (radioactive phosphate incorporation), CDK2-cyclin E; type: biochemical; settings: read-out: Kinase Inhibition pIC50 CDK2-cycline E (converted)
Outline: (§2)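 Recombinant active enzyme (2-4 μg) with suitable polypeptide substrate in 25 mM β-glycerophosphate, 20 mM MOPS, 5 mM EGTA, 1 mM DTT, 1 mM […], pH 7.4. Started with 15 mM MgCl2/100 μM ATP plus [γ-32P]-ATP, incubated at 30° C; 32P incorporation captured on filter plates and counted by scintillation.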

CDK4-cyclin D1 = CDK4-cyclin D1 (Homo sapiens, UniProt P11802); assay: Kinase assay (radioactive phosphate incorporation), CDK4-cyclin D1; type: biochemical; settings: read-out: Kinase Inhibition pIC50 CDK4-cyclin D1 (converted)
Sequence of CDK4-cyclin D1 (P11802 whole entry): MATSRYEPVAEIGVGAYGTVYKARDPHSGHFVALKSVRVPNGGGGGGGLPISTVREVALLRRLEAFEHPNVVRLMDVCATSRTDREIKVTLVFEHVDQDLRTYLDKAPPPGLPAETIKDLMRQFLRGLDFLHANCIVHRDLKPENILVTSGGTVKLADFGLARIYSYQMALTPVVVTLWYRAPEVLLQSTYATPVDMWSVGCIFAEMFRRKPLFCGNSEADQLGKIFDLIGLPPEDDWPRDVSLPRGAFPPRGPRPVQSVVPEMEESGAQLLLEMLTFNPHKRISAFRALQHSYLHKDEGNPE
Sequence of CDK4-cyclin D1 (P24385 whole entry partner): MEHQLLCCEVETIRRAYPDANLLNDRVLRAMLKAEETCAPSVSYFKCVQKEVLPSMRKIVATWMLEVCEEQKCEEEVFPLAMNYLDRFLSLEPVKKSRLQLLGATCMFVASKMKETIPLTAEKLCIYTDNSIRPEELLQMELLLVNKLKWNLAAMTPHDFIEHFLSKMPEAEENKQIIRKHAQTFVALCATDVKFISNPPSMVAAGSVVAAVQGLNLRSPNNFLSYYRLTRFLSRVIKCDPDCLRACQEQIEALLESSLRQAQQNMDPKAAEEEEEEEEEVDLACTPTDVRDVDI
Outline: as §2

CDK7/cyclin H = CDK7/cyclin H (Homo sapiens, UniProt P50613); assay: CDK 7 assay (CTD peptide substrate); type: biochemical; settings: read-out: Kinase Inhibition pIC50 CDK7-cyclin H (converted)
Sequence of CDK7/cyclin H (P50613 whole entry): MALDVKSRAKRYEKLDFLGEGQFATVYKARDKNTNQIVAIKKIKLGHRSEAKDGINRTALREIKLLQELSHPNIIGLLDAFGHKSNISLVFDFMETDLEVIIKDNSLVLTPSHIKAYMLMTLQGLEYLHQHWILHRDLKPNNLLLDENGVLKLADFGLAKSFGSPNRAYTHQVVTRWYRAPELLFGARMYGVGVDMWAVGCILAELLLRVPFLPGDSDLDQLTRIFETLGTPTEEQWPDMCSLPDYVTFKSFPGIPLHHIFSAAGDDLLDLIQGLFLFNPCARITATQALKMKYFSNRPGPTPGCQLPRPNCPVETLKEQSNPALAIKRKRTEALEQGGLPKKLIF
Sequence of CDK7/cyclin H (P51946 whole entry partner): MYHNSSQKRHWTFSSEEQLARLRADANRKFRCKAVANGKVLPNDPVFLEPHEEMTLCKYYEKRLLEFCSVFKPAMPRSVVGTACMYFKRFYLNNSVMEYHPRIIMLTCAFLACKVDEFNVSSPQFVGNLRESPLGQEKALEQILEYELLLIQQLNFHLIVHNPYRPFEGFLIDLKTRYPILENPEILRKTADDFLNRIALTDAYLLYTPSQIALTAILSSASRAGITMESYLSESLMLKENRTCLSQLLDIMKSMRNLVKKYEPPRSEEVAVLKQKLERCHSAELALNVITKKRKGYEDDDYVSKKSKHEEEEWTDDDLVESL
Outline: (§3)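 Recombinant human kinase/cyclin complex (0.5-2 μg) with biotinylated CTD heptapeptide-repeat substrate and test compound, 45 min at 30° C in MOPS pH 7.2 buffer with 15 mM MgCl2 and 100 μM ATP traced with [γ-32P]ATP. Avidin added, P81 filter capture, phosphoric acid washes, scintillation counting of 32P incorporation.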

CDK9/cyclin T1 = CDK9/cyclin T1 (Homo sapiens, UniProt P50750); assay: CDK 9 assay (CTD peptide substrate); type: biochemical; settings: read-out: Kinase Inhibition pIC50 CDK9-cyclin T1 (converted)
Sequence of CDK9/cyclin T1 (P50750 whole entry): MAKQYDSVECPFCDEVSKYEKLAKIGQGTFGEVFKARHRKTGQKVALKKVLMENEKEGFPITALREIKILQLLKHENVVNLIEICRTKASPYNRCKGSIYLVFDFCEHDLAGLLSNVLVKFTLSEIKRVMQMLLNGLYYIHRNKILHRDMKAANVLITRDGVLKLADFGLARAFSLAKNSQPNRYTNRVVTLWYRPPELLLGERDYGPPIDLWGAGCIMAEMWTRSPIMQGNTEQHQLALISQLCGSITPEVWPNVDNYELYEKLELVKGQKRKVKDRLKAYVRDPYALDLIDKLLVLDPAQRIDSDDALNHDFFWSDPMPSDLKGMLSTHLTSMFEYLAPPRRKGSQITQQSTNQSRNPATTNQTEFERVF
Sequence of CDK9/cyclin T1 (O60563 whole entry partner): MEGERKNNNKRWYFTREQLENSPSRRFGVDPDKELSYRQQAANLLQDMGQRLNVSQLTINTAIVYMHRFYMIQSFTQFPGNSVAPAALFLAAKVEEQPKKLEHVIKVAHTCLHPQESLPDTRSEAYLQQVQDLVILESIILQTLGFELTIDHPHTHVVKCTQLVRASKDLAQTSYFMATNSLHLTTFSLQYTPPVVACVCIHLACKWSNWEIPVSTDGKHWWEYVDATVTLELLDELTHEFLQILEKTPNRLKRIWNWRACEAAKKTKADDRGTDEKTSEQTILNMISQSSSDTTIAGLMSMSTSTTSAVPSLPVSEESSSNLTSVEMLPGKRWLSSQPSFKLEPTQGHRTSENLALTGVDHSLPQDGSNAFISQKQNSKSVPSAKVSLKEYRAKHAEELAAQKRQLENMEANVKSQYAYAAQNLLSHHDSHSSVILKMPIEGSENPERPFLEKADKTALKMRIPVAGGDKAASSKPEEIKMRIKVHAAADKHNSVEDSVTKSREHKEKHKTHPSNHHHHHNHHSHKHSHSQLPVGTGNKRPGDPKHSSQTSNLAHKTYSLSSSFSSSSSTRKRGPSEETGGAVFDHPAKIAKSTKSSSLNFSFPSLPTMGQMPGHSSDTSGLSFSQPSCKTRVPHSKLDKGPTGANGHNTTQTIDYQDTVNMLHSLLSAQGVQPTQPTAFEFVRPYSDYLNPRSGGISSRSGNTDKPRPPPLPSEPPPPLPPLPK
Outline: as §3

GSK3b = GSK3b (Homo sapiens, UniProt P49841); assay: Kinase assay (radioactive phosphate incorporation), GSK-3b; type: biochemical; settings: read-out: Kinase Inhibition pIC50 GSK-3b (converted)
Sequence of GSK3b (P49841 whole entry, species assumed): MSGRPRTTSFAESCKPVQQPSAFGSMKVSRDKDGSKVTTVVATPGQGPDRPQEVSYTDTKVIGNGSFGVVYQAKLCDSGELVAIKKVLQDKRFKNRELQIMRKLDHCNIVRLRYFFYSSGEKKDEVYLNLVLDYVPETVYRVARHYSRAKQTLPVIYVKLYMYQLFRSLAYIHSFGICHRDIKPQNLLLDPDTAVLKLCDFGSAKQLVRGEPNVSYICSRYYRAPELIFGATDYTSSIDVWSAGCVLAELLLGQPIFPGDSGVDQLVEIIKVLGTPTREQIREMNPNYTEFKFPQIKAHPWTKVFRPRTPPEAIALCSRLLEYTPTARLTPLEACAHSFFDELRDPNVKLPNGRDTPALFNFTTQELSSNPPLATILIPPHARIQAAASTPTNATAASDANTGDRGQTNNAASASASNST
Procedure: as §1

[1] = molecular target: T1, Flt3 (FMS-like tyrosine kinase-3) (Homo sapiens, UniProt P36888); assay: Kinase assay (radioactive phosphate incorporation), Flt3; type: biochemical; settings: pIC50 is -log(IC50, M), read-out: Kinase Inhibition pIC50 Flt3 (converted)
T1 sequence (P36888 27-993): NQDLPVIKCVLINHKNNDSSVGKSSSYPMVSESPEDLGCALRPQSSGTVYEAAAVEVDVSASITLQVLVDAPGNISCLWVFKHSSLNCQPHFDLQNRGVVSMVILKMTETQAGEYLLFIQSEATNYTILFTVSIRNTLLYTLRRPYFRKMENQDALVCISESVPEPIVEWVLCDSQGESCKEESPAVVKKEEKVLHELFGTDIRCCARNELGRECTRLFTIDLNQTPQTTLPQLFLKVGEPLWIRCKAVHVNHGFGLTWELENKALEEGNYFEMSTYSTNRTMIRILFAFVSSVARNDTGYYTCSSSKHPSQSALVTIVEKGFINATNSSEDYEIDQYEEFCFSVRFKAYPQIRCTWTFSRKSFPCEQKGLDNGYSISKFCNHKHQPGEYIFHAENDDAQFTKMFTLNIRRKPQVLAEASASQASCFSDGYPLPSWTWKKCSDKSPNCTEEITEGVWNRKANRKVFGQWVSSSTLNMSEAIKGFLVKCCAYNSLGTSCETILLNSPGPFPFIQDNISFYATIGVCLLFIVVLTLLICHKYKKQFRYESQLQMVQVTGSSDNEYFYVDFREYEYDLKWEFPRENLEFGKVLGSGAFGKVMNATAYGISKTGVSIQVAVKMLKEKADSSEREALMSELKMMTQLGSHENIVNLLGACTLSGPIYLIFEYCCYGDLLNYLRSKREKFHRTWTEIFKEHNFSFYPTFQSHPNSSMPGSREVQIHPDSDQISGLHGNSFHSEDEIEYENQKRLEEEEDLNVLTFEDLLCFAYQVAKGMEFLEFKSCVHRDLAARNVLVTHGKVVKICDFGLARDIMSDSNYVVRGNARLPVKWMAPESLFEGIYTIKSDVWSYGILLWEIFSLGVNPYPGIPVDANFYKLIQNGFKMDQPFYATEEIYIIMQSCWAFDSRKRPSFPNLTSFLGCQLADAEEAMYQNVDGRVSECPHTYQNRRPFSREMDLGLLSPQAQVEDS
Outline: as §2

CDK1-cyclin B = CDK1-cyclin B (Homo sapiens, UniProt P06493); assay: Kinase assay (radioactive phosphate incorporation), CDK1-cyclin B; type: biochemical; settings: read-out: Kinase Inhibition pIC50 CDK1-cyclin B (converted)
Sequence of CDK1-cyclin B (P06493 whole entry): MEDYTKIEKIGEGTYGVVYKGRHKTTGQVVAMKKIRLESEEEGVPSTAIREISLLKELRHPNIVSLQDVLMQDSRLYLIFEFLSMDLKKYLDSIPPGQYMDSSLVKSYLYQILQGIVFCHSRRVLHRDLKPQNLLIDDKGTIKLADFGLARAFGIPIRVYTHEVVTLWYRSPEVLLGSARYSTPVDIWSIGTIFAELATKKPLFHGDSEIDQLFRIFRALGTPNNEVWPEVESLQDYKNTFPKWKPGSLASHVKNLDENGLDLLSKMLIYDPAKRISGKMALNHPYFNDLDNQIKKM
Sequence of CDK1-cyclin B (P14635 whole entry partner): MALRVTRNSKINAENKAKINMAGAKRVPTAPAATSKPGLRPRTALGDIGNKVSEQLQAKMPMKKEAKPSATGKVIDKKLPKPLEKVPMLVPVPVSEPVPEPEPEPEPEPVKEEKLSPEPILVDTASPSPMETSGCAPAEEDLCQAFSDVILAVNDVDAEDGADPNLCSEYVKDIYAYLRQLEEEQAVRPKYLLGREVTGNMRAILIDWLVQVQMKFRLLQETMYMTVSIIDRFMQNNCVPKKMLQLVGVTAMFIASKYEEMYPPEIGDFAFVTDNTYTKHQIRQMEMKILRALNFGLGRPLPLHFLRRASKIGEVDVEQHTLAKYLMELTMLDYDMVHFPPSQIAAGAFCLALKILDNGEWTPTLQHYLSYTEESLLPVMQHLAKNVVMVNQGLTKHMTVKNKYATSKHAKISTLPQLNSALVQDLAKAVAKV
Outline: as §2

Aurora A kinase = molecular target: T2, Aurora A kinase (Homo sapiens, UniProt O14965); assay: Aurora-A (human) kinase assay (Kemptide substrate); type: biochemical; settings: pIC50 is -log(IC50, M); 15 μM ATP; read-out: Kinase Inhibition pIC50 Aurora A kinase (converted)
T2 construct: purchased
T2 sequence (O14965 1-403): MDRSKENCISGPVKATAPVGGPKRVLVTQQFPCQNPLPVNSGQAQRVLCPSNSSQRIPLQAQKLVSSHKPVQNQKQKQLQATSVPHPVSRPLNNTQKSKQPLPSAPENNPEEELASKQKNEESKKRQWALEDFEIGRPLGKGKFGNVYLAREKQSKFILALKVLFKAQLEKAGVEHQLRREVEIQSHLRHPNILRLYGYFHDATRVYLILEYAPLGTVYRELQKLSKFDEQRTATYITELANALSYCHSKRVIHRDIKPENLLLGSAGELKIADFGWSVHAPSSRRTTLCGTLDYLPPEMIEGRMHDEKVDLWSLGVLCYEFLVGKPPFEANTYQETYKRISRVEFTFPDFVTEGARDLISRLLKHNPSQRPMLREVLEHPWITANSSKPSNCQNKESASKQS
Outline: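 Radiometric filter-binding assay: commercial aurora-A kinase (5-10 ng) with 200 μM Kemptide in MOPS/EDTA pH 7.0, started with 10 mM Mg acetate and 15 μM ATP plus [γ-33P]-ATP. Incubated 40 min at room temperature, stopped with phosphoric acid, incorporated 33P counted by scintillation.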

Structure (SMILES) | IC50 (CDK2-cyclin A) [nM] | IC50 (CDK2-cycline E) [nM] | IC50 (CDK4-cyclin D1) [nM] | IC50 (CDK7/cyclin H) [nM] | IC50 (CDK9/cyclin T1) [nM] | IC50 (GSK3b) [nM] | IC50 [1] [nM] | IC50 (CDK1-cyclin B) [nM] | IC50 (Aurora A kinase) [nM] | melting point [°C]
CCNc1nc(C)c(-c2ccnc(Nc3cccc(S(C)(=O)=O)c3)n2)s1 [Compound 28, [4-(2-Ethylamino-4-methyl-thiazol-5-yl)-pyrimidin-2-yl]-(3-methanesulfonyl-phenyl)-amine] | 794 | 15.8 | 251 | 100 | 3.16 | 631 | 79.4 | – | – | –
Cc1nc(C)c(-c2ccnc(Nc3cccc(S(C)(=O)=O)c3)n2)s1 [Compound 4, [4-(2,4-Dimethyl-thiazol-5-yl)-pyrimidin-2-yl]-(3-methanesulfonyl-phenyl)-amine] | 1000 | 316 | 1260 | 1000 | 251 | 398 | – | 501 | 251 | –
CNc1nc(C)c(-c2ccnc(Nc3ccc(S(=O)(=O)NCCOC)cc3)n2)s1 [Compound 40, N-(2-Methoxy-ethyl)-4-[4-(4-methyl-2-methylamino-thiazol-5-yl)-pyrimidin-2-ylamino]-benzenesulfonamide] | 15.8 | 3.16 | – | – | 158 | 501 | – | 79.4 | 5.01 | –
CCNc1nc(C)c(-c2ccnc(Nc3ccc(S(=O)(=O)NCCOC)cc3)n2)s1 [Compound 39, 4-[4-(2-Ethylamino-4-methyl-thiazol-5-yl)-pyrimidin-2-ylamino]-N-(2-methoxy-ethyl)-benzenesulfonamide] | 12.6 | 15.8 | 501 | 631 | 200 | 5010 | – | 50.1 | 126 | –
CNS(=O)(=O)c1cccc(Nc2nccc(-c3sc(C)nc3C)n2)c1 [Compound 33, 3-[4-(2,4-Dimethyl-thiazol-5-yl)-pyrimidin-2-ylamino]-N-methyl-benzenesulfonamide] | 200 | 50.1 | 200 | 126 | 10 | 200 | – | 501 | 1260 | –
Cc1nc(C)c(-c2ccnc(Nc3cccc(CNC(=O)c4ccccc4)c3)n2)s1 [Compound 9, N-{3-[4-(2,4-Dimethyl-thiazol-5-yl)-pyrimidin-2-ylamino]-benzyl}-benzamide] | 1000 | 158 | 251 | 5010 | 501 | 2000 | – | 631 | 158 | –
CCNc1nc(C)c(-c2ccnc(Nc3cccc(CNS(=O)(=O)C(F)(F)F)c3)n2)s1 [Compound 10, N-{3-[4-(2-Ethylamino-4-methyl-thiazol-5-yl)-pyrimidin-2-ylamino]-benzyl}-C,C,C-trifluoro-methanesulfonamide] | 6310 | 1580 | – | 6310 | 316 | 6310 | 158 | – | 2000 | –
Cc1nc(N)sc1-c1ccnc(Nc2cccc(CNS(C)(=O)=O)c2)n1 [Compound 6, N-{3-[4-(2-Amino-4-methyl-thiazol-5-yl)-pyrimidin-2-ylamino]-benzyl}-methanesulfonamide] | 398 | 100 | 200 | 126 | 7.94 | – | 50.1 | 1000 | 126 | –

Results, then the compound that gave them:

IC50 (CDK2-cyclin A) [nM] | IC50 (CDK2-cycline E) [nM] | IC50 (CDK4-cyclin D1) [nM] | IC50 (CDK7/cyclin H) [nM] | IC50 (CDK9/cyclin T1) [nM] | IC50 (GSK3b) [nM] | IC50 [1] [nM] | IC50 (CDK1-cyclin B) [nM] | IC50 (Aurora A kinase) [nM] | melting point [°C] | Structure (SMILES)
3160 | 631 | 501 | 2510 | 398 | 1580 | – | 6310 | 1580 | – | CNc1nc(C)c(-c2ccnc(Nc3cccc(S(=O)(=O)NC(C)=O)c3)n2)s1 [Compound 63, N-Acetyl-3-[4-(4-methyl-2-methylamino-thiazol-5-yl)-pyrimidin-2-ylamino]-benzenesulfonamide]
3980 | – | – | 5010 | 501 | 1260 | – | – | 126 | 197 to 198 | COCCNS(=O)(=O)c1cccc(Nc2nccc(-c3sc(C)nc3C)n2)c1 [Compound 56, 3-[4-(2,4-Dimethyl-thiazol-5-yl)-pyrimidin-2-ylamino]-N-(2-methoxy-ethyl)-benzenesulfonamide]
2510 | 398 | 398 | 1580 | 251 | 1580 | – | 6310 | 200 | – | CC(=O)NS(=O)(=O)c1cccc(Nc2nccc(-c3sc(N)nc3C)n2)c1 [Compound 64, N-Acetyl-3-[4-(2-amino-4-methyl-thiazol-5-yl)-pyrimidin-2-ylamino]-benzenesulfonamide]
2000 | 316 | 501 | 1260 | 158 | 1000 | – | 2000 | 631 | – | Cc1nc(C)c(-c2ccnc(Nc3cccc(S(=O)(=O)NCCO)c3)n2)s1 [Compound 78, 3-[4-(2,4-Dimethyl-thiazol-5-yl)-pyrimidin-2-ylamino]-N-(2-hydroxy-ethyl)-benzenesulfonamide]
15.8 | 7.94 | 501 | 3160 | – | 794 | – | 50.1 | 50.1 | – | COCCNS(=O)(=O)c1ccc(Nc2nccc(-c3sc(N)nc3C)n2)cc1 [Compound 41, 4-[4-(2-Amino-4-methyl-thiazol-5-yl)-pyrimidin-2-ylamino]-N-(2-methoxy-ethyl)-benzenesulfonamide]
